Data: patent US20150079105A1, “TREATMENT OF ACUTE INFLAMMATION IN THE RESPIRATORY TRACT” (UCL Business PLC, priority 2012, published 2015)
Entries after “also recorded” stand apart in the source; their conditions may differ.

Experiments:
Type in all cases: in vivo
[1] = system: TNF, IL-6, CXCL1, CXCL2, CCL2, CCL7; test: Cytokine and chemokine protein levels in lung homogenates of LPS challenged mice (Luminex bead array, ELISA); conditions: 5 mg/kg i.p. 30 min after LPS, 3 h
Protocol: FIG. 8. Mice were killed three hours after LPS (125 μg/kg i.n.) or saline challenge with or without the PAR1 antagonist RWJ-58259 (5 mg/kg) dosed i.p. after 30 min. Lungs were removed and homogenized. Levels of TNF (A), IL-6 (B) CXCL1 (C), and CXCL2 (D) protein were measured in lung homogenates using a Luminex bead array. Protein levels of CCL2 (H) and CCL7 (I) were measured from lung homogenates by ELISA. Mean and sem values of n=5 per group are shown. Data were analysed by one way ANOVA with Newman-Keuls post hoc test: ***p<0.001, **p<0.01, *p<0.05. […]
Cytokine and chemokine levels were measured by ELISA.
In order to confirm the LDA analysis of mRNA expression, the level of protein in lung homogenates was measured.

[2] = system: 151 inflammatory mediators; test: Low density array (LDA) of 151 inflammatory mediators, lung mRNA of LPS challenged mice; conditions: 5 mg/kg i.p. 30 min after LPS, 3 h
Protocol: FIG. 7. […] Lungs were removed, snap frozen and homogenised under liquid nitrogen before RNA was isolated and run on a low density gene array consisting of 151 inflammatory markers (A). […] Of these genes the pro-inflammatory cytokines TNF and IL-6, and the neutrophil chemoattractants CXCL1 and CXCL2, in addition to the chemokines CCL2 and CCL7 are further depicted (D). Data were analysed by one way ANOVA with Newman-Keuls Post Hoc test:, **p<0.01, *p<0.05.
In order to identify potential PAR1-regulated cytokine/chemokine candidates involved in LPS-induced ALI, a low density array (LDA) designed to profile 151 inflammatory mediators was used (FIG. 7a, FIG. 9). Total RNA was extracted from pulverised frozen pulverised lung using TRIzol (see manufacture's protocol (Invitrogen)), DNase treated using a DNA free kit (Ambion) and cDNA synthesised from 1 μg RNA/per sample using a Superscript kit (Invitrogen). Expression levels of known inflammatory mediators were analysed in cDNA using Taqman low density array qPCR chips and normalized to 18 s. Transcript data was analysed using the Gene Expression Similarity Suite (Genesis) software^51 and data represented as a heat map following log2 transformation and normalisation. Relative fold-difference in expression was calculated using the ΔΔT method with the saline treated group as the calibrator reference. […] The differential gene expression profile included the upregulation of several genes known to be important for the generation of inflammatory responses, such as TNF, interleukins, CXC chemokines and CC chemokines, including CCL2, CCL3, CCL4, CCL7, CCL22, CXCL1, CXCL2, CXCL10, CXCL13 and CX3CL1.

[3] = system: CCL7, Gr-1+ neutrophils; test: Immunohistochemical staining of CCL7 and Gr-1 in lung sections of LPS challenged mice; conditions: 5 mg/kg 30 min after LPS; lungs fixed after 3 h
Protocol: FIG. 16. Mice were challenged with 125 μg/kg LPS (i.n.) and whole lungs inflated and fixed after 3 h. Immunohistochemical staining of CCL7 (a, b an c) or Gr-1 (d, e and f) was compared between saline treated controls and LPS challenged mice with or without treatment with the PAR1 antagonist RWJ-58259 (5 mg/kg) dosed therapeutically after 30 min. [AEW]. Endothelial-epithelial barrier disruption was measured by ELISA as the amount of serum albumin in BAL fluid from mice three hours after LPS (125 μg/kg i.n.) challenge (g) or S. pneumoniae challenge (h) with and without the PAR1 antagonist RWJ-58259 (5 mg/kg) dosed therapeutically i.p. after 30 min.
The observation that neutrophil migration downstream of PAR1 activation was mediated by the non-classical neutrophil chemokine, CCL7, was unexpected. In order to determine the cellular source of CCL7 the immunolocalization of CCL7 and Gr-1+ neutrophils in serial lung sections from saline treated and LPS-challenged mice was examined. In saline treated control lung, there was weak CCL7 staining which was mainly restricted to the bronchial epithelium (FIG. 16a). […] Only weak immunolocalization was detected in the alveolar epithelium. […] Gr-1 specific immunostaining was next performed in order to detect neutrophils in serial lung sections. No Gr-1 staining could be detected in saline treated controls (FIG. 16d). […]

## NCC[C@H](NC(=O)[C@H](Cc1ccc(F)c(F)c1)NC(=O)Nc1ccc2c(CN3CCCC3)nn(Cc3c(Cl)cccc3Cl)c2c1)C(=O)NCc1ccccc1 [RWJ-58259]
[1]
  CCL2 protein level in lung homogenates: decreased
  CCL7 protein level in lung homogenates: decreased
[1]; listed as PAR1 antagonist
  CXCL1 protein level in lung homogenates: unaffected; also recorded: not affected
  CXCL2 protein level in lung homogenates: unaffected; also recorded: not affected
  IL-6 protein level in lung homogenates: did not attenuate; also recorded: not affected
  TNF protein level in lung homogenates: did not attenuate; also recorded: not affected
[2]
  CCL2 (MCP-1) mRNA expression in lung: decreased
  CCL7 (MCP-3) mRNA expression in lung: decreased
  CXCL1 mRNA expression in lung: unaffected
  CXCL2 mRNA expression in lung: unaffected
  IL-6 mRNA expression in lung: unaffected
  TNF mRNA expression in lung: unaffected
[2]; array of 151 markers
  number of genes (markers) with decreased expression following PAR1 antagonism: 25 genes
[3]
  Gr-1 immunoreactivity in lung sections: decreased
  LPS-induced CCL7 immunoreactivity in lung sections: reduced
